Laboratory results: ChEMBL document CHEMBL1150401, “Genotoxicity of alpha-asarone analogues” (Bioorg Med Chem, 2008)

Key:
Salmonella typhimurium [1] = assay: Mutagenic activity in Salmonella Typhimurium TA97 assessed as number of his+ revertants at 100 ug/plate after 48 to 72 hrs by Ames test in absence of S9 fraction; assay type: toxicity, organism-based; conditions: salmonella enterica subsp. enterica serovar typhimurium
Salmonella typhimurium [2] = assay: Mutagenic activity in Salmonella Typhimurium TA97 assessed as number of his+ revertants at 100 ug/plate after 48 to 72 hrs by Ames test in presence of S9 fraction; assay type: toxicity, organism-based; conditions: salmonella enterica subsp. enterica serovar typhimurium
Salmonella typhimurium [3] = assay: Mutagenic activity in Salmonella Typhimurium TA97 assessed as number of his+ revertants at 500 ug/plate after 48 to 72 hrs by Ames test in absence of S9 fraction; assay type: toxicity, organism-based; conditions: salmonella enterica subsp. enterica serovar typhimurium
Salmonella typhimurium [4] = assay: Mutagenic activity in Salmonella Typhimurium TA97 assessed as number of his+ revertants at 500 ug/plate after 48 to 72 hrs by Ames test in presence of S9 fraction; assay type: toxicity, organism-based; conditions: salmonella enterica subsp. enterica serovar typhimurium
Salmonella typhimurium [5] = assay: Mutagenic activity in Salmonella Typhimurium TA97 assessed as number of his+ revertants at 1000 ug/plate after 48 to 72 hrs by Ames test in absence of S9 fraction; assay type: toxicity, organism-based; conditions: salmonella enterica subsp. enterica serovar typhimurium
Salmonella typhimurium [6] = assay: Mutagenic activity in Salmonella Typhimurium TA97 assessed as number of his+ revertants at 1000 ug/plate after 48 to 72 hrs by Ames test in presence of S9 fraction; assay type: toxicity, organism-based; conditions: salmonella enterica subsp. enterica serovar typhimurium
Salmonella typhimurium [7] = assay: Mutagenic activity in Salmonella Typhimurium TA98 assessed as number of his+ revertants at 100 ug/plate after 48 to 72 hrs by Ames test in absence of S9 fraction; assay type: toxicity, organism-based; conditions: salmonella enterica subsp. enterica serovar typhimurium
Salmonella typhimurium [8] = assay: Mutagenic activity in Salmonella Typhimurium TA98 assessed as number of his+ revertants at 100 ug/plate after 48 to 72 hrs by Ames test in presence of S9 fraction; assay type: toxicity, organism-based; conditions: salmonella enterica subsp. enterica serovar typhimurium
Salmonella typhimurium [9] = assay: Mutagenic activity in Salmonella Typhimurium TA98 assessed as number of his+ revertants at 500 ug/plate after 48 to 72 hrs by Ames test in absence of S9 fraction; assay type: toxicity, organism-based; conditions: salmonella enterica subsp. enterica serovar typhimurium
Salmonella typhimurium [10] = assay: Mutagenic activity in Salmonella Typhimurium TA98 assessed as number of his+ revertants at 500 ug/plate after 48 to 72 hrs by Ames test in presence of S9 fraction; assay type: toxicity, organism-based; conditions: salmonella enterica subsp. enterica serovar typhimurium
Salmonella typhimurium [11] = assay: Mutagenic activity in Salmonella Typhimurium TA98 assessed as number of his+ revertants at 1000 ug/plate after 48 to 72 hrs by Ames test in absence of S9 fraction; assay type: toxicity, organism-based; conditions: salmonella enterica subsp. enterica serovar typhimurium
Salmonella typhimurium [12] = assay: Mutagenic activity in Salmonella Typhimurium TA98 assessed as number of his+ revertants at 1000 ug/plate after 48 to 72 hrs by Ames test in presence of S9 fraction; assay type: toxicity, organism-based; conditions: salmonella enterica subsp. enterica serovar typhimurium
Salmonella typhimurium [13] = assay: Mutagenic activity in Salmonella Typhimurium TA100 assessed as number of his+ revertants at 100 ug/plate after 48 to 72 hrs by Ames test in absence of S9 fraction; assay type: toxicity, organism-based; conditions: salmonella enterica subsp. enterica serovar typhimurium
Salmonella typhimurium [14] = assay: Mutagenic activity in Salmonella Typhimurium TA100 assessed as number of his+ revertants at 100 ug/plate after 48 to 72 hrs by Ames test in presence of S9 fraction; assay type: toxicity, organism-based; conditions: salmonella enterica subsp. enterica serovar typhimurium
Salmonella typhimurium [15] = assay: Mutagenic activity in Salmonella Typhimurium TA100 assessed as number of his+ revertants at 500 ug/plate after 48 to 72 hrs by Ames test in absence of S9 fraction; assay type: toxicity, organism-based; conditions: salmonella enterica subsp. enterica serovar typhimurium
Salmonella typhimurium [16] = assay: Mutagenic activity in Salmonella Typhimurium TA100 assessed as number of his+ revertants at 500 ug/plate after 48 to 72 hrs by Ames test in presence of S9 fraction; assay type: toxicity, organism-based; conditions: salmonella enterica subsp. enterica serovar typhimurium
Salmonella typhimurium [17] = assay: Mutagenic activity in Salmonella Typhimurium TA100 assessed as number of his+ revertants at 1000 ug/plate after 48 to 72 hrs by Ames test in absence of S9 fraction; assay type: toxicity, organism-based; conditions: salmonella enterica subsp. enterica serovar typhimurium
Salmonella typhimurium [18] = assay: Mutagenic activity in Salmonella Typhimurium TA100 assessed as number of his+ revertants at 1000 ug/plate after 48 to 72 hrs by Ames test in presence of S9 fraction; assay type: toxicity, organism-based; conditions: salmonella enterica subsp. enterica serovar typhimurium
Salmonella typhimurium [19] = assay: Mutagenic activity in Salmonella Typhimurium TA102 assessed as number of his+ revertants at 100 ug/plate after 48 to 72 hrs by Ames test in absence of S9 fraction; assay type: toxicity, organism-based; conditions: salmonella enterica subsp. enterica serovar typhimurium
Salmonella typhimurium [20] = assay: Mutagenic activity in Salmonella Typhimurium TA102 assessed as number of his+ revertants at 100 ug/plate after 48 to 72 hrs by Ames test in presence of S9 fraction; assay type: toxicity, organism-based; conditions: salmonella enterica subsp. enterica serovar typhimurium
Salmonella typhimurium [21] = assay: Mutagenic activity in Salmonella Typhimurium TA102 assessed as number of his+ revertants at 500 ug/plate after 48 to 72 hrs by Ames test in absence of S9 fraction; assay type: toxicity, organism-based; conditions: salmonella enterica subsp. enterica serovar typhimurium
Salmonella typhimurium [22] = assay: Mutagenic activity in Salmonella Typhimurium TA102 assessed as number of his+ revertants at 500 ug/plate after 48 to 72 hrs by Ames test in presence of S9 fraction; assay type: toxicity, organism-based; conditions: salmonella enterica subsp. enterica serovar typhimurium
Salmonella typhimurium [23] = assay: Mutagenic activity in Salmonella Typhimurium TA102 assessed as number of his+ revertants at 1000 ug/plate after 48 to 72 hrs by Ames test in absence of S9 fraction; assay type: toxicity, organism-based; conditions: salmonella enterica subsp. enterica serovar typhimurium
Salmonella typhimurium [24] = assay: Mutagenic activity in Salmonella Typhimurium TA102 assessed as number of his+ revertants at 1000 ug/plate after 48 to 72 hrs by Ames test in presence of S9 fraction; assay type: toxicity, organism-based; conditions: salmonella enterica subsp. enterica serovar typhimurium
L929 [25] = assay: Genotoxicity against mouse L929 cells assessed as number of micronuclei at 100 ug/ml; assay type: toxicity, cell-based
Salmonella typhimurium [26] = assay: Cytotoxicity against Salmonella Typhimurium TA97 assessed as reduction in his+ revertants number at 500 ug/plate after 48 to 72 hrs in absence of S9 fraction; assay type: functional, Salmonella enterica subsp. enterica serovar Typhimurium; set-up: scale not given: the % may be the effect or the level left
Salmonella typhimurium [27] = assay: Cytotoxicity against Salmonella Typhimurium TA98 assessed as reduction in his+ revertants number at 500 ug/plate after 48 to 72 hrs in absence of S9 fraction; assay type: functional, Salmonella enterica subsp. enterica serovar Typhimurium; set-up: scale not given: the % may be the effect or the level left
Salmonella typhimurium [28] = assay: Cytotoxicity against Salmonella Typhimurium TA100 assessed as reduction in his+ revertants number at 500 ug/plate after 48 to 72 hrs in absence of S9 fraction; assay type: functional, Salmonella enterica subsp. enterica serovar Typhimurium; set-up: scale not given: the % may be the effect or the level left
Salmonella typhimurium [29] = assay: Cytotoxicity against Salmonella Typhimurium TA102 assessed as reduction in his+ revertants number at 500 ug/plate after 48 to 72 hrs in absence of S9 fraction; assay type: functional, Salmonella enterica subsp. enterica serovar Typhimurium; set-up: scale not given: the % may be the effect or the level left
Salmonella typhimurium [30] = assay: Cytotoxicity against Salmonella Typhimurium TA97 assessed as reduction in his+ revertants number at 500 ug/plate after 48 to 72 hrs in presence of S9 fraction; assay type: functional, Salmonella enterica subsp. enterica serovar Typhimurium; set-up: scale not given: the % may be the effect or the level left
Salmonella typhimurium [31] = assay: Cytotoxicity against Salmonella Typhimurium TA98 assessed as reduction in his+ revertants number at 500 ug/plate after 48 to 72 hrs in presence of S9 fraction; assay type: functional, Salmonella enterica subsp. enterica serovar Typhimurium; set-up: scale not given: the % may be the effect or the level left
Salmonella typhimurium [32] = assay: Cytotoxicity against Salmonella Typhimurium TA100 assessed as reduction in his+ revertants number at 500 ug/plate after 48 to 72 hrs in presence of S9 fraction; assay type: functional, Salmonella enterica subsp. enterica serovar Typhimurium; set-up: scale not given: the % may be the effect or the level left
Salmonella typhimurium [33] = assay: Cytotoxicity against Salmonella Typhimurium TA102 assessed as reduction in his+ revertants number at 500 ug/plate after 48 to 72 hrs in presence of S9 fraction; assay type: functional, Salmonella enterica subsp. enterica serovar Typhimurium; set-up: scale not given: the % may be the effect or the level left
L929 [34] = assay: Genotoxicity against mouse L929 cells assessed as number of micronuclei at 50 ug/ml; assay type: toxicity, cell-based
Salmonella typhimurium [35] = assay: Cytotoxicity against Salmonella Typhimurium TA102 assessed as reduction in his+ revertants after 48 to 72 hrs in absence of S9 fraction; assay type: functional, Salmonella enterica subsp. enterica serovar Typhimurium; set-up: scale not given: the % may be the effect or the level left
Salmonella typhimurium [36] = assay: Cytotoxicity against Salmonella Typhimurium TA102 assessed as reduction in his+ revertants after 48 to 72 hrs in presence of S9 fraction; assay type: functional, Salmonella enterica subsp. enterica serovar Typhimurium; set-up: scale not given: the % may be the effect or the level left
Salmonella typhimurium [37] = assay: Cytotoxicity against Salmonella Typhimurium TA102 assessed as growth inhibition oh his+ revertants after 48 to 72 hrs; assay type: functional, Salmonella enterica subsp. enterica serovar Typhimurium; set-up: scale not given: the % may be the effect or the level left

Compound	Activity (Salmonella typhimurium [1])	Activity (Salmonella typhimurium [2])	Activity (Salmonella typhimurium [3])	Activity (Salmonella typhimurium [4])	Activity (Salmonella typhimurium [5])	Activity (Salmonella typhimurium [6])	Activity (Salmonella typhimurium [7])	Activity (Salmonella typhimurium [8])	Activity (Salmonella typhimurium [9])	Activity (Salmonella typhimurium [10])	Activity (Salmonella typhimurium [11])	Activity (Salmonella typhimurium [12])	Activity (Salmonella typhimurium [13])	Activity (Salmonella typhimurium [14])	Activity (Salmonella typhimurium [15])	Activity (Salmonella typhimurium [16])	Activity (Salmonella typhimurium [17])	Activity (Salmonella typhimurium [18])	Activity (Salmonella typhimurium [19])	Activity (Salmonella typhimurium [20])	also measured
C/C=C/c1ccc(OC)c(OC)c1OC	151	212	151	200	131	172	27	44	22	43	20	26	108	167	116	160	100	132	236	343	Activity (Salmonella typhimurium [21]): 203; Activity (Salmonella typhimurium [22]): 335; Activity (Salmonella typhimurium [23]): 160; Activity (Salmonella typhimurium [24]): 233; Activity (L929 [25]): 3.79%; Activity (Salmonella typhimurium [26]): 23%; Activity (Salmonella typhimurium [27]): 23%; Activity (Salmonella typhimurium [28]): 23%; Activity (Salmonella typhimurium [29]): 23%; Activity (Salmonella typhimurium [30]): 9%; Activity (Salmonella typhimurium [31]): 9%; Activity (Salmonella typhimurium [32]): 9%; Activity (Salmonella typhimurium [33]): 9%
C/C=C/c1c(OC)cc(OC)cc1OC	163	175	190	200	223	187	32	24	32	18	26	22	138	153	134	156	148	126	275	333	Activity (Salmonella typhimurium [21]): 298; Activity (Salmonella typhimurium [22]): 328; Activity (Salmonella typhimurium [23]): 195; Activity (Salmonella typhimurium [24]): 218; Activity (L929 [34]): 3.44%; Activity (Salmonella typhimurium [35]): 28%; Activity (Salmonella typhimurium [36]): 27%; Activity (Salmonella typhimurium [37]): 28%
